Laboratory results as given in patent US6448269B1 (Eli Lilly and Company, priority 1993, dated 2002).
Structures can show the parent of a compound that is named as a salt.

What follows are compounds tested on human platelet-rich plasma (assay: Platelet aggregation assay (Aggregation-Human PRP/ADP)). Settings: 1 min; human platelet-rich plasma incubated with compound 1 minute at 37° C.; ADP-induced aggregation; read-out: Agg: Human PRP/ADP IC50uM.
Assay type: cell-based
Description: Platelet-rich plasma was prepared from healthy human volunteers for use in determining inhibition of platelet aggregation by the compounds.
Platelet-rich plasma was prepared at room temperature by centrifugation of the citrated whole blood at 100×g for 12 minutes. The platelet rich plasma contained approximately 200-400,000 platelets/μl.
Platelet-poor plasma was prepared by centrifugation of citrated whole blood at 12,000×g for 2 minutes.
Platelet aggregation was assayed in a 4-channel platelet aggregation profiler (PAP-4, Biodata, Hatboro, Pa.) according to the manufacturers directions. Inhibition of platelet aggregation was studied by adding varying amounts of […] to stirred human platelet-rich plasma. Specifically, the human platelet-rich plasma was incubated with the compound being tested for 1 minute at 37° C. prior to the addition of a variety of aggregating agents most often ADP 5 μM, but also 1 μg/ml collagen, 1 μM U46619 and 0.3 μM platelet activating factor.

Question: With `CCCCCCNC(=O)C(CC(=O)O)N1CCc2cc(OCc3ccc(C(=N)N)cc3)ccc2C1=O` (racemic) [Example 5, (+−)-6-[[4-(Aminoiminomethyl)phenyl]methoxy]-3,4-dihydro-1-oxo-beta[hexylamino Carbonyl]-2(1H)-isoquinolone Propanoic Acid Trifluoroacetate] as the compound, how does the IC50 read?
Answer: 7 µM

Question: `CCOC(=O)CC1CCc2cc(OCc3ccc(C(=N)N)cc3)ccc2O1` (racemic) [Example 45, Hydrochloride] was tested. Which IC50 did it give?
Answer: 11 µM

Question: `NC(=O)c1ccc(C(=O)Nc2ccc3c(c2)CCC(CC(=O)O)O3)cc1` (racemic) [Example 49, rac-(6-(N-(4-Carbamoylbenzoyl)amino)-3,4-dihydro-2H-1-benzopyran-2-yl)acetic Acid] was tested. Which IC50 did it give?
Answer: 100 µM

Question: `CCOC(=O)CCC1(C)C=Cc2cc(OCc3ccc(C(=N)N)cc3)ccc2O1` (racemic) [Example 52, Hydrochloride] was tested. Which IC50 did it give?
Answer: 100 µM

Question: With `O=C(O)CC1CCc2cc(OCCCCC3CCNCC3)ccc2O1` (racemic) [Example 54, rac-(3,4-Dihydro-6-(4-(piperidin-4-yl)butoxy)-2H-1-benzopyran-2-yl)acetic Acid Trifluoroacetate] as the compound, how does the IC50 read?
Answer: 12 µM

Question: Which IC50 does the source give for `CCOC(=O)CC1CCc2cc(NC(=O)c3ccc(C(=N)N)cc3Cl)ccc2C1=O` (racemic) [Example 62, Hydrochloride] here?
Answer: 6.8 µM

Question: With `CCOC(=O)CCC1(C)CC(=O)c2cc(OCc3ccc(C(=N)N)cc3)ccc2O1` (racemic) [Example 66, Hydrochloride] as the compound, how does the IC50 read?
Answer: > 100 µM

Question: With `CC1(CCC(=O)O)CC(=O)c2cc(OCc3ccc(C(=N)N)cc3)ccc2O1` (racemic) [Example 67, Hydrochloride] as the compound, how does the IC50 read?
Answer: 29 µM

Question: How did the IC50 turn out when `CCOC(=O)CC1CCc2cc(NC(=O)c3ccc(C(=N)N)cc3Cl)ccc2O1` (racemic) [Example 75, acetate Hydrochloride] was run?
Answer: 1.8 µM

Question: For `CCOC(=O)CC1CCc2cc(NC(=O)/C=C/C3CCNCC3)ccc2O1` (racemic) [Example 77, Ethyl rac-(3,4-Dihydro-6-(N-(3-(piperidine-4-yl)propenoyl)amino)-2H-1-benzopyran-2-yl)acetate Trifluoroacetate], which IC50 is on record?
Answer: 1.3 µM

Question: How did the IC50 turn out when `CCOC(=O)CC1CC(C)(C)c2cc(NC(=O)c3ccc(C(=N)N)cc3)ccc2O1` (racemic) [Example 79, Hydrochloride] was run?
Answer: > 100 µM

Question: How did the IC50 turn out when `CC1(C)CC(CC(=O)O)Oc2ccc(NC(=O)c3ccc(C(=N)N)cc3)cc21` (racemic) [Example 80, rac-(6-(N-(4-(Aminoiminomethyl)benzoyl)amino)-3,4-dihydro-4,4-dimethyl-2H-1-benzopyran-2-yl)acetic Acid] was run?
Answer: > 100 µM

Question: Which IC50 does the source give for `CCCNC(=N)c1ccc(C(=O)Nc2ccc3c(c2)CCC(CC(=O)OCC)O3)cc1` (racemic) [Example 81, Hydrochloride] here?
Answer: 0.39 µM

Question: For `CCCCNC(=N)c1ccc(C(=O)Nc2ccc3c(c2)CCC(CC(=O)OCC)O3)cc1` (racemic) [Example 83, Hydrochloride], which IC50 is on record?
Answer: 0.14 µM

Question: How did the IC50 turn out when `CCCOC(=O)NC(=N)c1ccc(C(=O)Nc2ccc3c(c2)CCC(CC(=O)OCC)O3)cc1` (racemic) [Example 85] was run?
Answer: > 100 µM

Question: Which IC50 does the source give for `CCCOC(=O)CC1CCc2cc(NC(=O)c3ccc(C(=N)N)cc3)ccc2O1` (racemic) [Example 86, hydrochloride] here?
Answer: 0.078 µM

Question: With `COC(=O)CC1CCc2cc(NC(=O)c3ccc(C(=N)N)cc3)ccc2O1` (racemic) [Example 87, Hydrochloride] as the compound, how does the IC50 read?
Answer: 0.084 µM

Question: With `CCOC(=O)CC1CCc2cc(NC(=O)c3ccc(C(=N)NCc4ccccc4)cc3)ccc2O1` (racemic) [Example 92, Ethyl rac-(3,4-Dihydro-6-(N-(4-(N′-(phenylmethylamino)iminomethyl)benzoyl)amino)-2H-1-benzopyran-2-yl)acetate Hydrochloride] as the compound, how does the IC50 read?
Answer: 0.24 µM

Question: With `N=C(N)NCc1ccc(COc2ccc3c(c2)CCN(CC(=O)O)C3=O)cc1` [Example 21, 6-[[4-(Guanidinomethyl)phenyl]methoxy]-3,4-dihydro-1-oxo-2(1H)-isoquinoline Acetic Acid Trifluoroacetate] as the compound, how does the IC50 read?
Answer: > 100 µM

Question: For `N=C(N)c1ccc(C(=O)Nc2ccc3c(c2)CCC(CC(=O)O)C3=O)cc1` (stereo not drawn) [Example 30], which IC50 is on record?
Answer: 0.06 µM

The compounds below were run against T1, GPIIb-IIIa (Homo sapiens, UniProt P05106+P08514) (assay: ELISA IIb-IIIa assay (fibrinogen binding to immobilized GPIIb-IIIa)). Settings: purified platelet GPIIb-IIIa receptor coated on ELISA plates; biotin-labeled fibrinogen 10 nM, 3 hours at 25° C.
T1 construct: Purified platelet GPIIb-IIIa receptor was prepared as described by Fitzgerald; from tissue; host or cells: platelets
T1 sequence (P08514 32-887 limits assumed): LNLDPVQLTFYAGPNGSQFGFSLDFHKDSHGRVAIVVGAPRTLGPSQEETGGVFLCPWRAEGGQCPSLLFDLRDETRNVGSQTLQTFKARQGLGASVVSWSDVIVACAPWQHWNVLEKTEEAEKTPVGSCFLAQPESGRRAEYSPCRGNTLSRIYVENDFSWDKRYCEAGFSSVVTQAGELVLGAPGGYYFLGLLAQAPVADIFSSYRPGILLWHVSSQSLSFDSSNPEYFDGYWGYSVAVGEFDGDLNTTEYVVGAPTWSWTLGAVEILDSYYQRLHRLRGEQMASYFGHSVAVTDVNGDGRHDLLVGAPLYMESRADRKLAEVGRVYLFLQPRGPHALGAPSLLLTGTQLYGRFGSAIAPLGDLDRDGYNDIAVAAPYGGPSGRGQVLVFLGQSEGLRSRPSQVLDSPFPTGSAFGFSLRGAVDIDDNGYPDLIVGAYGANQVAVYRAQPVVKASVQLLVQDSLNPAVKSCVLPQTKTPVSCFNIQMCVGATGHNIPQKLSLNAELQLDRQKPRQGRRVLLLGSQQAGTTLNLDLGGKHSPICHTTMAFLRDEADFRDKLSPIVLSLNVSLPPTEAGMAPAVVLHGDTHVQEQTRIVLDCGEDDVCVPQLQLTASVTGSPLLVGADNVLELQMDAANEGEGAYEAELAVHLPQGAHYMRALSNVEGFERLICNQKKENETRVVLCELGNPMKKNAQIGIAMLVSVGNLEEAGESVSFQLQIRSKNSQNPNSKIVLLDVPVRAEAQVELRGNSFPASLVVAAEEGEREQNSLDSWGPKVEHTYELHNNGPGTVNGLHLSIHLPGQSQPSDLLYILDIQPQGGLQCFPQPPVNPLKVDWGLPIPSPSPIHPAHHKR
T1 sequence (P05106 27-788): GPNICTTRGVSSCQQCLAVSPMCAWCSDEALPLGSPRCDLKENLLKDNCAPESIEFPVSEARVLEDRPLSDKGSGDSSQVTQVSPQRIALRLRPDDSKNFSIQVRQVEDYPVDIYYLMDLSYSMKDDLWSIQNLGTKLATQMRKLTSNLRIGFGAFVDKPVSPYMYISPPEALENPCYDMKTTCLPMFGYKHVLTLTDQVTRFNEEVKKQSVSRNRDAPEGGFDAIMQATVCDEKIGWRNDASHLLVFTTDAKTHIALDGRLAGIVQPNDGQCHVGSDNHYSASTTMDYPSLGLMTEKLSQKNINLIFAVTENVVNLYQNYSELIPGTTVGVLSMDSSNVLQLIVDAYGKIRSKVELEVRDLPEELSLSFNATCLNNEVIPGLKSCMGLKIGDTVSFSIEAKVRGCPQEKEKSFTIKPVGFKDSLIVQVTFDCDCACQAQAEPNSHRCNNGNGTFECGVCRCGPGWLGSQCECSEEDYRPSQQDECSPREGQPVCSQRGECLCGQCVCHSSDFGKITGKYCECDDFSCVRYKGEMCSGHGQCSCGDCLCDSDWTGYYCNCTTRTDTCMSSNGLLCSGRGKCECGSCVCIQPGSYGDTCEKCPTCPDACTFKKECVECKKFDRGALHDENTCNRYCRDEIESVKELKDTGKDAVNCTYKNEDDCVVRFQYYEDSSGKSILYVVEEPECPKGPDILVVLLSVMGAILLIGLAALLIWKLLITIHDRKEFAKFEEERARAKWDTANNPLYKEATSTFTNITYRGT
Description: In the following assay, GPIIb-IIIa is prepared in purified form, by a method such as described by Fitzgerald, L. A., et al., Anal Biochem (1985) 151:169-177, (the disclosure of which is incorporated herein by reference). GPIIb-IIIa is coated onto microtiter plates. The coated support is then contacted with fibrinogen and with the test material (e.g., compounds of Formula I) and incubated for a sufficient time to permit maximal binding of fibrinogen to the immobilized GPIIb-IIIa. Fibrinogen is typically provided at a concentration of about 5-50 nM and the test material can, if desired, be added at a series of dilution. Typical incubations are 2 to 4 hours at 25° C., the time and temperature being interdependent.
After incubation, the solution containing the fibrinogen and test material is removed and the level of binding of fibrinogen measured by quantitating bound fibrinogen to GPIIb-IIIa. Any suitable means of detection may be used, but it is convenient to employ labeled fibrinogen, for example using biotinylated labels. Such methods are well known in the art.
Purified platelet GPIIb-IIIa receptor was prepared as described by Fitzgerald, L. A., et al., Anal Biochem (1985) 151:169-177 (1985). Vitronectin receptor was prepared as described by Smith, J. W., J. Biol Chem (1988) 263:18726-18731. After purification, the receptors were stored in 0.1% Triton X-100 at 0.1-1.0 mg/ml.
The receptors were coated to the wells of 96-well flat-bottom ELISA plates (Linbro EIA-Plus microtiter plate, Flow Laboratories) after diluting 1:200 with a solution of 20 mM Tris-HCl, 150 mM NaCl, 1 mM CaCl2, pH 7.4, to reduce the Triton X-100 concentration to below its critical micellar concentration and adding an aliquot of 100 ul to each well. The wells were all allowed to incubate overnight at 4° C., and then aspirated to dryness. Additional sites were blocked by the addition of bovine serum albumin (BSA) at 35 mg/ml in the above buffer for 2 hours at 30° C. to prevent nonspecific binding. The wells were then washed once with binding buffer ([…] Tris-HCl, 100 mM NaCl 2 mM CaCl2, 1 mg/ml BSA).
The corresponding ligands (fibrinogen, von Willebrand Factor, or vitronectin) were conjugated to biotin using commercially available reagents and standard protocols. The labeled ligands were added to the receptor-coated wells at final concentration of 10 nM (100 ul/well) and incubated for 3 hours at 25° C. in the presence or absence of the test samples. After incubation, the wells are aspirated to dryness and bound ligand is quantitated.
The bound protein is detected by the addition of antibiotin antibody conjugated to alkaline phosphatase followed by addition of substrate (p-nitrophenyl phosphate), and determination of the optical density of each well at […]. Decreased color development is observed in wells incubated with test samples which inhibit binding of ligand to receptor.

Question: With `CCCCCCNC(=O)C(CC(=O)O)N1CCc2cc(OCc3ccc(C(=N)N)cc3)ccc2C1=O` (racemic) [Example 5, (+−)-6-[[4-(Aminoiminomethyl)phenyl]methoxy]-3,4-dihydro-1-oxo-beta[hexylamino Carbonyl]-2(1H)-isoquinolone Propanoic Acid Trifluoroacetate] as the compound, how does the IC50 read?
Answer: 33 nM

Question: For `CCOC(=O)CC1CCc2cc(NC(=O)c3ccc(C(=N)NC(=O)OCC)cc3)ccc2O1` (racemic) [Example 68], which IC50 is on record?
Answer: > 1000 nM

Question: How did the IC50 turn out when `O=C(O)CNC1CCc2cc(OCCCC3CCNCC3)ccc2C1` (stereo not drawn) [Example 25] was run?
Answer: 220 nM

Question: How did the IC50 turn out when `N=C(N)c1ccc(COc2ccc3c(c2)CCC(NCC(=O)O)C3)cc1` (stereo not drawn) [Example 26] was run?
Answer: 520 nM

Question: `CC(=O)N(CC(=O)O)C1CCc2cc(OCc3ccc(C(=N)N)cc3)ccc2C1` (stereo not drawn) [Example 27] was tested. Which IC50 did it give?
Answer: 110 nM

Question: How did the IC50 turn out when `N=C(N)c1ccc(COc2ccc3cc(CC(=O)O)ccc3c2)cc1` [Example 33] was run?
Answer: 5 nM

Question: `N=C(N)c1ccc(COc2ccc3c(c2)CCN(C(=O)C(=O)O)C3)cc1` [Example 44] was tested. Which IC50 did it give?
Answer: 160 nM
